Source: US20100068160A1, “COSMETIC AND DERMATOLOGICAL FORMULATIONS INCLUDING PHENOXYALKYL ESTERS” (EVONIK GOLDSCHMIDT GMBH, priority 2008, published 2010)

Assay: Dissolving power of UV photoprotective filters in phenoxyalkyl esters
Type: physicochemical
Settings: percent by weight, 22° C.; for Dissolving power for Benzophenone-3: maximum dissolvable amount of UV filter Benzophenone-3 (BP-3) in the substance; for Dissolving power for BMDM: maximum dissolvable amount of UV filter Butyl Methoxydibenzoylmethane (BMDM) in the substance; for Dissolving power for Tinosorb S: maximum dissolvable amount of UV filter Tinosorb S (Bemotrizinol, BEMT) in the substance; for Dissolving power for Uvinul T 150: maximum dissolvable amount of UV filter Uvinul T 150 (Octyl Triazone, EHT) in the substance
Description: To test the dissolving power of crystalline UV photoprotective filters in phenoxyalkyl esters, four representative UV-A and/or UV-B photoprotective filters were selected by way of representation. These were benzophenone-3 (2-hydroxy-4-methoxybenzophenone, BP-3), Butyl Methoxydibenzoylmethane (BMDM), Octyl Triazone (2,4,6-trianilino-p-(carbo-2′-ethylhexyl-1′-oxy)-1,3,5-triazines, EHT) and Bemotrizinol (bis-ethylhexyloxyphenol meth-oxyphenyl triazine, BEMT).
To determine the dissolving power for these […] UV photoprotective filters, in each case a certain amount (50 g) of one of the compounds according to the invention was initially introduced and heated to 22° C. One (1) percent by weight of a UV photoprotective filter was added and the mixture was stirred until this amount had dissolved completely and homogeneously. This operation was repeated until the maximum dissolvable amount of the UV photoprotective filter was exceeded. For complete dissolution in the case of relatively high concentrations, a prolonged stirring time of several hours was often necessary.
If the maximum concentration had been roughly determined in this way, to finely determine the concentration range around this maximum concentration the procedure was repeated using smaller initial weight amounts of the […] photoprotective filter.
The reference used was the compound Tegosoft® TN (C12-15 alkyl benzoate).

Compound | Dissolving power for Benzophenone-3 [%] | Dissolving power for BMDM [%] | Dissolving power for Tinosorb S [%] | Dissolving power for Uvinul T 150 [%]
CCCCC(CC)C(=O)OC(C)COc1ccccc1 (centres unmarked) [1-Phenoxy-2-propyl 2-ethylhexanoate] | 21 | 15 | 9 | 4
CCCCCCCC(=O)OC(C)COc1ccccc1 (centres unmarked) [1-Phenoxy-2-propyl caprylate, 1-phenoxy-2-propyloctanoic acid ester] | 21 | 14 | 9 | 6
CC(COc1ccccc1)OC(=O)C1CCCCC1 (centres unmarked) [1-Phenoxy-2-propyl cyclohexanoate, 1-phenoxy-2-propylcyclohexanecarboxylic acid ester] | 27 | 16 | 10 | 6
CCCCCCC(CCCC)C(=O)OCCOc1ccccc1 (centres unmarked) [2-Phenoxyethyl 2-butyloctanoate, 2-phenoxyethyl-2-butyloctanoic acid ester] | 19 | 14 | 8 | 5
CCCCC(CC)C(=O)OCCOc1ccccc1 (centres unmarked) [2-Phenoxyethyl 2-ethylhexanoate, 2-phenoxyethyl-2-ethylhexanoic acid ester] | 25 | 17 | 12 | 4
CCCCCC(CCC)C(=O)OCCOc1ccccc1 (centres unmarked) [2-Phenoxyethyl 2-propylheptanoate] | 20 | 13 | 9 | 4
CCCCCC(=O)OCCOc1ccccc1 [2-Phenoxyethyl caproate] | 28 | 18 | 11 | 6
CCCCCCCC(=O)OCCOc1ccccc1 [2-Phenoxyethyl caprylate, 2-phenoxyethyloctanoic acid ester] | 28 | 18 | 11 | 6
O=C(OCCOc1ccccc1)C1CCCCC1 [2-Phenoxyethyl cyclohexanoate, 2-phenoxyethylcyclohexanecarboxylic acid ester] | 30 | 19 | 12 | 6
CC(C)CCCCCC(=O)OCCOc1ccccc1 [2-Phenoxyethyl isononanoate] | 25 | 16 | 9 | 4
C12-15 alkyl benzoate [Tegosoft ® TN, reference compound] | 15 | 13 | 9 | 4
